A short description of the data set: FeSSIF Solubility Assay. The conditions noted are these: fed state simulated intestinal fluid (FeSSIF), thermodynamic from solid, pH 5 acetate buffer, 37° C., read-out: FESSIF sol. The class given is physicochemical. On the procedure: 1 mL of fed state simulated intestinal fluid (FeSSIF), prepared using FaSSIF/FeSSIF/FaSSGF powder (Biorelevant.com) and pH 5 acetate buffer, was added to 1.0 mg of compound and then incubated for 24 h (Bioshake iQ, 650 rpm, 37° C.). Following filtration under positive pressure, the concentration of compound in solution was assessed by LC-UV in comparison to the response for a calibration standard of known concentration (250 μM). FeSSIF solubility results are described in Table 34D.

In brackets after ≈: the same amount, converted by molar mass.

We go through two molecules from patent US20260049079A1, “CHIRAL SYNTHESIS OF FUSED BICYCLIC RAF INHIBITORS” (Jazz Pharmaceuticals Ireland Limited, priority 2020, published 2026).

Consider `O=C1CCc2c(Oc3ccc4c(c3)C[C@H](c3nc(-c5ccc(F)cc5)c[nH]3)CO4)ccnc2N1` (single isomer, unassigned) [Compound A-2], for which the solubility thermodynamic at 24 h was 9.4 µg/mL (≈ 20.6 µM).
With `O=C1CCc2c(Oc3ccc4c(c3)C[C@@H](c3nc(-c5ccc(F)cc5)c[nH]3)CO4)ccnc2N1` (single isomer, unassigned) [Compound A-1], the solubility thermodynamic at 24 h is 9.9 µg/mL (≈ 21.7 µM).
